Source: ChEMBL document CHEMBL5331052, “Discovery of a novel water-soluble, rapid-release triptolide prodrug with improved drug-like properties and high efficacy in human acute myeloid leukemia” (Eur J Med Chem, 2022)
Activity calls are given as the source filed them. The rule behind the calls is not given here.

Assays:
[1] = Prodrug conversion in Sprague-Dawley rat plasma assessed as triptolide release at 500 ng/ml measured after 1.5 hrs by UPLC-MS/MS analysis; assay type: ADME, cell-free
[2] = Chemical stability of the compound in water assessed as parent compound remaining at 2 mg/ml measured immediately by HPLC analysis; assay type: physicochemical; settings: read-out: Stability
[3] = Aqueous solubility of compound at 1 to 10 mg/ml by HPLC analysis; assay type: physicochemical; settings: water; dose 1-10 mg/ml
[4] = Chemical stability of the compound in water assessed as parent compound remaining at 2 mg/ml measured after 4 hrs by HPLC analysis; assay type: physicochemical; settings: read-out: Stability
[5] = Prodrug conversion in Sprague-Dawley rat plasma assessed as triptolide release at 50 ug/ml measured after 30 mins by HPLC analysis; assay type: ADME, cell-free; settings: 0.5 h, dose 50 µg/ml
[6] = Prodrug conversion in human plasma assessed as triptolide release at 50 ug/ml measured after 45 mins by HPLC analysis; assay type: ADME, cell-free; settings: 0.75 h, dose 50 µg/ml
[7] = Prodrug conversion in human plasma assessed as triptolide release at 1 mg/ml measured after 1.5 hrs by HPLC analysis; assay type: ADME, cell-free
[8] = Prodrug conversion in human plasma assessed as triptolide release at 1 mg/ml measured after 1 hrs by HPLC analysis; assay type: ADME, cell-free
[9] = Prodrug conversion in human plasma assessed as triptolide release at 50 to 5000 ng/ml measured for 1 hrs by HPLC analysis; assay type: ADME, cell-free; settings: dose 50-5000 ng/ml
[10] = Prodrug conversion in human plasma assessed as triptolide release at 500 ng/ml measured after 1 hrs by UPLC-MS/MS analysis; assay type: ADME, cell-free
[11] = Prodrug conversion in Sprague-Dawley rat plasma assessed as triptolide release at 500 ng/ml measured after 1 hrs by UPLC-MS/MS analysis; assay type: ADME, cell-free
[12] = Microsomal stability in rat liver microsomes assessed as half life; assay type: ADME, Microsome
[13] = Microsomal stability in rat liver microsomes assessed as intrinsic clearance; assay type: ADME, Microsome; settings: read-out: CLH
[14] = Microsomal stability in rat liver microsomes assessed as hepatic clearance; assay type: ADME, Microsome
[15] = test system: THP-1; test: Antiproliferative activity against human THP-1 cells assessed as inhibition of cell growth measured after 48 hrs by CCK8 assay; assay type: functional, cell-based; settings: THP-1, 48 h
[16] = test system: MV4-11; test: Antiproliferative activity against human MV4-11 cells assessed as cell growth inhibition measured after 48 hrs by CCK8 assay; assay type: functional, cell-based; settings: MV4-11, 48 h
[17] = test system: PBMC; test: Cytotoxicity against human PBMC cells assessed as cell survial at 30 to 300 nM measured after 48 hrs by CCK8 assay; assay type: toxicity, cell-based; settings: 0.3 µM, dose 30-300 nM
[18] = test system: MV4-11; test: Antiproliferative activity against human MV4-11 cells assessed as cell growth inhibition measured after 24 hrs by Edu incorporation assay; assay type: functional, cell-based
[19] = test system: THP-1; test: Antiproliferative activity against human THP-1 cells assessed as cell growth inhibition measured after 24 hrs by Edu incorporation assay; assay type: functional, cell-based; settings: dose 30-120 nM
[20] = test system: THP-1; test: Antitumor activity against human THP-1 cells xenografted in BALB/c nude mouse assessed as tumor growth inhibition at 100 microg/kg, ip qd measured every 2 days for 28 days relative to control; assay type: functional; settings: THP-1, 672 h, dose 100 µg/kg, time 28 day, read-out: TGI
[21] = test system: THP-1; test: Antitumor activity against human THP-1 cells xenografted in BALB/c nude mouse assessed as complete tumor regression at 300 microg/kg, ip qd measured every 2 days for 16 days; assay type: functional, organism-based; settings: dose 300.0 µg/kg, time 16.0 day
[22] = Toxicity in BALB/c nude mouse xenografted with human THP-1 cells assessed as change in body weight at 0.1 to 1.2 mg/kg, ip qd measured every 2 days for 28 days; assay type: organism-based; settings: in vivo, 672 h, dose 0.1-1.2 mg/kg, time 28 day
[23] = Toxicity in BALB/c nude mouse xenografted with human THP-1 cells assessed as animal death at 2.4 to 4.8 mg/kg, ip qd measured after 2 to 3 days; assay type: organism-based; settings: in vivo, dose lower 2.4 mg/kg, time lower 2 day, dose upper 4.8 mg/kg, time upper 3 day
[24] = test system: MV4-11; test: Antitumor activity against human MV4-11 cells xenografted in BALB/c nude mouse assessed as tumor growth inhibition at 25 microg/kg, ip qd measured every 2 days for 28 days relative to control; assay type: functional; settings: MV4-11, 672 h, dose 25 µg/kg, time 28 day, read-out: TGI
[25] = test system: MV4-11; test: Antitumor activity against human MV4-11 cells xenografted in BALB/c nude mouse assessed as complete tumor regression at 100 microg/kg, ip qd measured every 2 days for 12 days; assay type: functional, organism-based; settings: dose 100.0 µg/kg, time 12.0 day
[26] = test system: MV4-11; test: Antitumor activity against human MV4-11 cells xenografted in ip dosed BALB/c nude mouse assessed as cell growth inhibition by measuring effect on Ki67 protein expression in tumor administered daily and measured after 28 days by immunohistochemical analysis; assay type: functional, organism-based; settings: dose 25-50 µg/kg, time 28.0 day
[27] = test system: MV4-11; test: Antitumor activity against human MV4-11 cells xenografted in ip dosed BALB/c nude mouse assessed as induction of apoptosis by measuring increase in cleaved caspase-3 level in tumor administered daily and measured after 28 days by immunohistochemical staining based analysis; assay type: functional, organism-based; settings: dose 25-50 µg/kg, time 28.0 day
[28] = test system: THP-1; test: Antitumor activity against human THP-1 cells xenografted in BALB/c nude mouse assessed as cell growth inhibition by measuring effect on Ki67 protein expression in tumor at 0.1 mg/kg, ip administered daily and measured after 28 days by immunohistochemical analysis; assay type: functional, organism-based; settings: time 28.0 day
[29] = test system: THP-1; test: Antitumor activity against human THP-1 cells xenografted in BALB/c nude mouse assessed as induction of apoptosis by measuring increase in cleaved caspase-3 level in tumor at 0.1 mg/kg, ip administered daily and measured after 28 days by immunohistochemical staining based analysis; assay type: functional, organism-based; settings: time 28.0 day
[30] = test system: MV4-11; test: Antitumor activity against human MV4-11 cells xenografted in BALB/c nude mouse assessed as tumor growth inhibition at 300 microg/kg/day, IG measured everyday for 11 days relative to control; assay type: functional; settings: MV4-11, po, 264 h, at 300 µg/kg/day, time 11 day, read-out: TGI
[31] = Toxicity in BALB/c nude mouse xenografted with human MV4-11 cells assessed as change in body weight at 180 microg/kg/day, IG measured everyday for 11 days; settings: in vivo, po, 264 h, dose 180 µg/kg/day, time 11 day
[32] = test system: MV4-11; test: Antitumor activity against human MV4-11 cells xenografted in BALB/c nude mouse assessed as tumor growth inhibition at 50 microg/kg, ip administered for 20 days in presence of gilteritinib and measured every 2 days relative to control; assay type: functional; settings: MV4-11, 480 h, dose 50 µg/kg, time 20 day, read-out: TGI
[33] = test system: MV4-11; test: Antitumor activity against human MV4-11 cells xenografted in BALB/c nude mouse assessed as cell growth inhibition by measuring effect on Ki67 protein expression in tumor at 50 microg/kg, ip administered for 20 days in presence of gilteritinib by immunohistochemical analysis; assay type: functional, organism-based; settings: dose 50.0 µg/kg, time 20.0 day
[34] = test system: MV4-11; test: Antitumor activity against human MV4-11 cells xenografted in BALB/c nude mouse assessed as induction of apoptosis by measuring caspase-3 level in tumor at 50 microg/kg, ip administered for 20 days in presence of gilteritinib by immunohistochemical analysis; assay type: functional, organism-based; settings: dose 50.0 µg/kg, time 20.0 day
[35] = (§1) Prodrug conversion in human plasma assessed as (5bS,6aS,7aR,8R,8aS,9aS,9bS,10bS)-8a-isopropyl-10b-methyl-3-oxo-1,2,3,5,5b,6,6a,8,8a,9a,9b,10b-dodecahydrotris(oxireno [2',3':4b,5;2'',3'':6,7;2''',3''':8a,9]phenanthro[1,2-c]furan-8-yl 2-hydroxyacetate intermediate formation by HPLC analysis; assay type: ADME, cell-free
[36] = as §1, with “formation measured after 1 hr” for “formation”; assay type: ADME, cell-free
[37] = test system: THP-1; test: Potency index, ratio of test compound IC50 to triptolide IC50 for antiproliferative activity against human THP-1 cells assessed as inhibition of cell growth measured after 48 hrs by CCK8 assay; assay type: functional
[38] = test system: MV4-11; test: Potency index, ratio of test compound IC50 to triptolide IC50 for antiproliferative activity against human MV4-11 cells assessed as inhibition of cell growth measured after 48 hrs by CCK8 assay; assay type: functional
[39] = Prodrug conversion in Sprague-Dawley rat plasma assessed as triptolide release at 500 ng/ml measured after 8 hrs by UPLC-MS/MS analysis; assay type: ADME, cell-free

With `CC(C)[C@]12O[C@H]1[C@@H]1O[C@]13[C@]1(O[C@H]1C[C@H]1C4=C(CC[C@@]13C)C(=O)OC4)[C@@H]2OC(=O)CCC(=O)[O-].[Na+]` [OMTRIPTOLIDE SODIUM] the Drug metabolism [1] was “Metabolite_Detected”.
In the case of `CC(C)[C@]12O[C@H]1[C@@H]1O[C@]13[C@]1(O[C@H]1C[C@H]1C4=C(CC[C@@]13C)C(=O)OC4)[C@@H]2OC(=O)CCCOC(=O)CN1CCOCC1.Cl`, the remaining at 0 h, 2 mg/ml [2] is reported as 95%, the solubility [3] is reported as 7.49 mg/mL and the remaining at 4 h, 2 mg/ml [4] is reported as 94.8%. For the same molecule, the Drug metabolism [5] was “Metabolite_Detected”, the Drug metabolism [6] was “Metabolite_Detected” and the Drug metabolism [7] was “Metabolite_Detected”.
Work on `CC(C)[C@]12O[C@H]1[C@@H]1O[C@]13[C@]1(O[C@H]1C[C@H]1C4=C(CC[C@@]13C)C(=O)OC4)[C@@H]2OC(=O)COC(=O)CN1CCOCC1.Cl` yielded a remaining at 0 h, 2 mg/ml [2] of 99.4%, a solubility [3] of 6.13 mg/mL and a remaining at 4 h, 2 mg/ml [4] of 99.1%. For the same molecule, the Drug metabolism [5] was “Metabolite_Detected”, the Drug metabolism [6] was “Metabolite_Detected” and the Drug metabolism [8] was “Metabolite_Detected”. For the same molecule, the Drug metabolism [9] was “Metabolite_Detected”, the Drug metabolism [10] was “Metabolite_Detected” and the Drug metabolism [11] was “Metabolite_Detected”. For the same molecule, the half-life [12] was 8.64 min, the CLint scaled [13] was 17.3 L/h/kg and the CLhep predicted [14] was 3.94 L/h/kg. For the same molecule, the IC50 [15] was 0.0148 µM, the IC50 [16] was 0.046 µM and the Activity [17] was “Non-Toxic”. For the same molecule, the Activity [18] was “Dose-Dependent Effect”, the Activity [19] was “Dose-Dependent Effect” and the inhibition in vivo at 0.1 mg/kg [20] was 93.9%. For the same molecule, the Activity [21] was “Active”, the Activity [22] was “Non-Toxic” and the Activity [23] was “Toxic”. The inhibition in vivo at 0.025 mg/kg [24] was 54.3%, the Activity [25] was “Active” and the Activity [26] was “Dose-Dependent Effect”. The Activity [27] was “Dose-Dependent Effect”, the Activity [28] was “Active” and the Activity [29] was “Active”. For the same molecule, the inhibition in vivo at 0.3 mg/kg/day [30] was 93.5%, the Activity [31] was “Non-Toxic” and the inhibition in vivo at 0.05 mg/kg [32] was 78.1%. The Activity [33] was “Active”, the Activity [34] was “Active” and the Drug metabolism [35] was “Metabolite_Detected”. For the same molecule, the Drug metabolism [36] was “Metabolite_Notdetected”, the “Ratio IC50” value [37] was 2 and the “Ratio IC50” value [38] was 2.
With `CC(C)[C@]12O[C@H]1[C@@H]1O[C@]13[C@]1(O[C@H]1C[C@H]1C4=C(CC[C@@]13C)C(=O)OC4)[C@@H]2OCOP(=O)([O-])[O-].[Na+].[Na+]` [MINNELIDE] the Drug metabolism [39] was “Metabolite_Detected”.
